Laboratory results reported in patent publication US20240279191A1 (The General Hospital Corporation, priority 2021, published 2024).

How the values were obtained:
TEAD2 = TEAD2 (Homo sapiens, UniProt Q15562); test: Inhibition of TEAD2 auto-palmitoylation in vitro
TEAD4 = TEAD4 (Homo sapiens, UniProt Q15561); test: Inhibition of TEAD4 auto-palmitoylation in vitro
Sequence of TEAD4 (Q15561 whole entry, species assumed): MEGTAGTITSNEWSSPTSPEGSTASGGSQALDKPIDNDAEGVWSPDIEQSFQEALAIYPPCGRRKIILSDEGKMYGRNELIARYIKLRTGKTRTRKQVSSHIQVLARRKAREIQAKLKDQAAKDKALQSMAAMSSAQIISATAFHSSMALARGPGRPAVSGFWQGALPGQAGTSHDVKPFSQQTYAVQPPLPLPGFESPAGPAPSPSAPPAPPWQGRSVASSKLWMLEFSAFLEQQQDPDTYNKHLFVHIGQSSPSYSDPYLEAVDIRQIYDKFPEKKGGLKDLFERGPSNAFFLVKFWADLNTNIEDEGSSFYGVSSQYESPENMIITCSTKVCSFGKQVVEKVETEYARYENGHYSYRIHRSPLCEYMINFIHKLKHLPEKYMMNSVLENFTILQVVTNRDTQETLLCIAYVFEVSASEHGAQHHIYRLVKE

Sequence of TEAD2 (Q15562 whole entry): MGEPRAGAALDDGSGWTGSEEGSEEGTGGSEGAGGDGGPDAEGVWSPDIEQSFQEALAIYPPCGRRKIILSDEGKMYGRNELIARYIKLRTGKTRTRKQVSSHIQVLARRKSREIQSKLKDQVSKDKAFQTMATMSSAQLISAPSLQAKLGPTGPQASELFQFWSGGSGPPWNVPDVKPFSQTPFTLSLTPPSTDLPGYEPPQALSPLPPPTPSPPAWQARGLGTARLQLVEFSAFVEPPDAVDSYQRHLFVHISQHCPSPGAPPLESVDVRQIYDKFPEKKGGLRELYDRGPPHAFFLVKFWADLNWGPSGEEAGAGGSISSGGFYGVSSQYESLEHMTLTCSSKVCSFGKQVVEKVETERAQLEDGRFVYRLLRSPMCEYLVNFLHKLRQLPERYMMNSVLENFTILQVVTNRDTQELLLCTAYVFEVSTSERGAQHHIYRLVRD

IC50 (TEAD2): 156 nM | IC50 (TEAD4): 38 nM
Compound: O=C(Nc1ccccc1)N1CCN(C(=O)c2cccc(OCCC3CCCCC3)c2)CC1 [TM2, 4-(3-(2-cyclohexylethoxy)benzoyl)-N-phenylpiperazine-1-carboxamide]
